Earlier results, collected in US20260085040A1, “AMINO ACID AND CA[…] DERIVATIVES” (priority 2022, published 2026).

Tests used:
[1] = controlled clinical environment, subjects with OCD
[2] = 10 patients with alcohol dependence per DSM-IV

CN(C)CCc1c[nH]c2cccc(OP(=O)(O)O)c12 [psilocybin]
Participants with biologically verified 7-day point-prevalence abstinence (6-month follow up): eighty | Participants biologically verified as being abstinent (12-month follow-up): 67% | Participants abstinent (follow-up 2.5 years after the target quit date): 75% | Core OCD symptoms [1]: acute reductions in core OCD symptoms in several subjects | Safety of administration [1]: safely administered | Alcohol use post psilocybin administration [2]: significant decrease in alcohol use
